In US20240218327A1, “METHOD FOR QUICKLY AND EFFICIENTLY DIFFERENTIATING FUNCTIONAL GLIAL CELLS” (priority 2020, published 2024):

How the values were obtained:
NFIB-induced astrocytes [1] = experiment: Calcium transient assay (Fluo-4 calcium imaging); assay type: cell-based, human
Experimental: To confirm whether the cells acquire the ability to change intracellular calcium concentration, gene set enrichment analysis (GSEA) was employed to validate the expression pattern of genes related to this specific function. This analysis involved comparing the ranked gene signature of day 0 cells versus day 14 cells, with genes related to calcium-mediated signaling (GO:0019722). […] Calcium imaging was conducted on cells on days 7 and 14 using Fluo-4, a calcium indicator, and the intracellular calcium transients between two time points were compared. For calcium imaging, the differentiated astrocytes were prepared on 12 mm coverslips. After replacing the cell culture medium with Hank's Balanced Salt Solution (HBSS, without calcium or magnesium) (Thermo Fisher Scientific), differentiated astrocytes were incubated with 5 μM Fluo-4 AM (Thermo Fisher Scientific) at 37° C. for 30 minutes and then washed twice with the HBSS solution before calcium imaging. Thereafter, intracellular calcium levels were analyzed using the Fluo-4 AM fluorescence dye detection method, employing a confocal microscope (Fluoview FV1000, Olympus). For this purpose, intensity images of 535 nm wavelength were captured at 488 nm excitation wavelength at a rate of one frame per 2 seconds. Intracellular calcium levels were expressed as a fluorescence ratio (F/FO), calculated as changes in the fluorescence intensity (F) after treatments with 30 μM ATP or 100 μM glutamate, compared to the initial fluorescence intensity (FO) in the resting state.

NFIB-induced astrocytes [2] = experiment: Glutamate uptake analysis; assay type: cell-based, human; settings: 100 µM of glutamate; after 3 hours; day 7 of differentiation; n=6
From the text: Uptake of excitatory neurotransmitters such as glutamate is another critical function of the astrocytes in the nervous system. This is because excessive glutamate concentration results in excitotoxic damage to the nervous tissue, potentially causing neurodegeneration. As there was a gradual upregulation of the neurotransmitter recycling protein, GLUL, in due course of gene expression (FIG. 5C, indicated by a red box with an asterisk), the ability of the NFIB-induced astrocytes to take up glutamate was assessed throughout differentiation to determine whether the ability improves. The astrocytes were exposed to 100 µM of glutamate, and the concentration of glutamate remaining in the medium was measured after 3 hours on day 7 and day 14. […] This increased uptake correlates well with the gradual increment of various genes related to neurotransmitter uptake (GO: 0001504), including SCL1A3 (a gene encoding excitatory amino acid transporter 1, also known as GLAST) and ARL6IP5 (a gene encoding glutamate transporter EEAC1-interacting protein).

hPSC-NPCs = tested on: hPSC-NPCs
From the text: FIG. 8A illustrates clustering and scaled expression patterns for differentially expressed genes (DEGs) during the differentiation process using NFIB. […] FIG. 8E and FIG. 8F quantify the percentage of cells positive for each marker on day 14 of differentiation. […] Data is presented as the mean #s.e.m. (n=3) (* p<0.05, ** p<0.01, *** p<0.001).

glutamate
duration of asynchronous calcium oscillations (NFIB-induced astrocytes [1]; 100 μM glutamate, day 7 of differentiation): less than 100 seconds | average amplitude of calcium response (NFIB-induced astrocytes [1]; 100 μM glutamate, day 7 of differentiation, n=19): 4.92±0.32 F/FO | cells with amplitudes greater than 10 (NFIB-induced astrocytes [1]; 100 μM glutamate, day 14 of differentiation): 32.4% | amplitude of intracellular calcium peaks (NFIB-induced astrocytes [1]; 100 μM glutamate, day 14 of differentiation, n=26): 9.63±1.07 F/FO | glutamate uptake (NFIB-induced astrocytes [2]): 12.34±1.17%

N#CC(=C(/N)Sc1ccccc1N)/C(C#N)=C(\N)Sc1ccccc1N [U0126]
cell death (hPSC-NPCs; 20 μM): did not induce significant cell death | cell proliferation (hPSC-NPCs; 20 μM): tended to slightly decrease cell proliferation | GFAP-positive cells (astrocytes) in total cells (hPSC-NPCs; 20 μM, Treatment Condition 3: two days from day 12 to day 14 of differentiation): 26.88% | number of SOX1-positive cells (hPSC-NPCs; 20 μM, among treatment groups, day 14): not significantly different among the groups | morphology of GFAP-positive cells (hPSC-NPCs; 20 μM, compared with vehicle-treated group, correlated with exposure time): small cell body with fewer short processes | number of GFAP-positive cells (hPSC-NPCs; 20 μM, prolonged treatment (Treatment Condition 1 or 2), day 14): significantly reduced the number of GFAP-positive cells | astrocyte differentiation (fluorescence images for GFAP and SOX1) (hPSC-NPCs; pharmacological inhibition of the MAPK signaling pathway, FIG. 8D): robust suppression of astrocyte differentiation

Nc1ncnc2c1ncn2[C@@H]1O[C@H](COP(=O)(O)OP(=O)(O)OP(=O)(O)O)[C@@H](O)[C@H]1O [ATP]
cells with amplitude of calcium transients (F/FO) less than 3, among total cells (NFIB-induced astrocytes [1]; 30 μM ATP, day 7 of differentiation, n=70): 84.3% | amplitude of calcium transients, fluorescence ratio (NFIB-induced astrocytes [1]; 30 μM ATP, day 14 of differentiation, all the cells tested, n=80): ≥ 3 F/FO | duration of elevated intracellular calcium level (NFIB-induced astrocytes [1]; 30 μM ATP, regardless of the differentiation period (day 7 and day 14)): ≥ 50 s
